Data taken from patent US7279161B2, “Factor IX/factor IXa activating antibodies and antibody derivatives” (Baxter Aktiengesellschaft, priority 1999, dated 2007).
Values belong to the molecule of their own block, whether it stands above or below them.

Legend:
[1] = molecular target: T1, human FIXa (Homo sapiens, UniProt P00740); assay: Chromogenic FVIII-like (FXa generation) assay with human FIXa added; type: biochemical; conditions: 12 μM peptide, 2.3 nM human FIXa
T1 construct: with (+) and without (−) addition of 50 ng human FIXaβ; purchased ERL (Enzyme Research Laboratories)
T1 sequence (P00740 47-191 limits assumed): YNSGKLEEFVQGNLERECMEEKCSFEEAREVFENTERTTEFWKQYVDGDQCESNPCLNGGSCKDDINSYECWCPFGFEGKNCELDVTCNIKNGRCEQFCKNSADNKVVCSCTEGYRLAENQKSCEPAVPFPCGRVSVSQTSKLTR
T1 sequence (P00740 227-461 limits assumed): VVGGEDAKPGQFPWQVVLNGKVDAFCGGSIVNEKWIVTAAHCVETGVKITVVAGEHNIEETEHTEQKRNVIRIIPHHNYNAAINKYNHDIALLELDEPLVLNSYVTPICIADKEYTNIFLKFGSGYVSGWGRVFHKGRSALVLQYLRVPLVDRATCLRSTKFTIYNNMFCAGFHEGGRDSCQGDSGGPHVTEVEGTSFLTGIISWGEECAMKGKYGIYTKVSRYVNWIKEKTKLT
Protocol: The chromogenic activity of these antibody preparations was measured in the following FXa generation kinetic assay: 10 μg of monoclonal antibody (in 25 μl) were transferred to microtiter plate wells and warmed to 37° C. Chromogenic substrate (S-2222), synthetic thrombin inhibitor (I-2581), factor IXa and FX were reconstituted in sterile water and FIXa/FX (both bovine) were mixed with phospholipids according to the supplier's protocol. Per reaction, 50 μl of the phospholipid/FIXa/FX solution were combined with 25 μl CaCl2 (25 mM) and 50 μl of the substrate/inhibitor cocktail. To start the reaction, 125 μl of the premix were added to the monoclonal antibody solution in the microtiter plates and incubated at 37° C. Absorbance at 405 nm and 490 nm of the samples was read at various times (5 min to 2 h) against a reagent blank ([…] TBS instead of monoclonal antibodies) in a Labsystems iEMS Reader MF™ microtiter plate reader using GENESIS™ software. In parallel, the same reactions were performed except that 50 ng human FIXa were added per reaction.
To analyze the FVIII-like (FIXa activating) activity of the peptides, an assay system based on a commercial available FVIII assay was developed (see examples 2 and 4). The basic principle is, that without a cofactor, FIXa will have very limited activity towards its natural substrate FX. […] The amount of FXa generated is monitored by cleavage of a chromogenic substrate. The principle of the revised chromogenic assay is described for two representative peptides: A1/3 and A1/5 (Table 2). Briefly, 25 μl aliquots of peptide stock solution (in imidazole buffer (IZ) 50 mM imidazole, 100 mM NaCl, pH 7.2) were transferred to microtiter plate wells and warmed to 37° C. Chromogenic FXa substrate (S-2222), synthetic thrombin inhibitor (I-2581), bovine FIXa and bovine FX were reconstituted in sterile water and FIXa/FX mixed with phospholipids according to the supplier's protocol. […] Per reaction, 50 μl of the phospholipid/FIXa/FX solution were combined with 25 μl CaCl2 (25 mM) and 50 μl of the substrate/inhibitor cocktail. To start the reaction, 125 μl of the premix were added to the peptide solution in the microtiter plate and incubated at 37° C. Absorbance at 405 nm and 490 nm of the samples was read at various times (5 min to 2 h) against a reagent blank in a Labsystems iEMS Reader MF™ microtiter plate reader using GENESIS™ software.

[2] = test system: FVIII deficient plasma; assay: aPTT based one stage clotting assay in FVIII deficient plasma; type: biochemical, human
Protocol: During normal hemostasis, FIX becomes initially activated either by the tissue factor (TF)/factor VIIa pathway or later on by activated factor XI (FXIa). Subsequent to its activation, FIXa associates on the platelet surface in a membrane bound complex with activated FVIII. […] Different amounts of antibody 193/AD3 or mouse IgG (as a control) were used in a standard aPTT based one stage clotting assay. Briefly, 100 μl of antibody-containing samples were incubated with 100 μl of FVIII deficient plasma (DP) and with 100 μl of DAPTTIN (PTT Reagent for determining activated Thromboplastin Time; IMMUNO AG) reagent, in a KC10A clotting analyzer. Where indicated, a total amount of 50 ng activated FIX was included in the reaction mixture. After a 4 minute incubation, the reaction was started by the addition of 100 μl CaCl2 (25 mM).
The peptides were also analyzed for their potential to reduce the clotting time in a FVIII deficient plasma. The aPTT based one stage clotting assay was essentially done as described (see example 6). Clotting times (time from starting the reaction to the “clot”-formation were compared either against FVIII, a buffer control (IZ) or a control peptide (scrambled version). The results of two typical clotting experiments done with two different aPTT reagents (DAPTTIN and Pathromtin SL) are shown in table 3A and table 3B.

[3] = molecular target: T2, factor IXa (Bos taurus, UniProt P00741); assay: Chromogenic FVIII assay (COATEST VIII:C/4) with the kit's FIXa/FX; type: biochemical, bovine; conditions: bovine FIXa and FX only; A1/3 24 μM
T2 construct: purchased Chromogenix COATEST VIII:C/4
T2 sequence (P00741 47-192 limits assumed): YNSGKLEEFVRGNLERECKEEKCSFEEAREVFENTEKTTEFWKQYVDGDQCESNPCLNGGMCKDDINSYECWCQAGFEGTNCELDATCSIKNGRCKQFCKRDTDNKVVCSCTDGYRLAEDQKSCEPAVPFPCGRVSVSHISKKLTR
T2 sequence (P00741 228-462 limits assumed): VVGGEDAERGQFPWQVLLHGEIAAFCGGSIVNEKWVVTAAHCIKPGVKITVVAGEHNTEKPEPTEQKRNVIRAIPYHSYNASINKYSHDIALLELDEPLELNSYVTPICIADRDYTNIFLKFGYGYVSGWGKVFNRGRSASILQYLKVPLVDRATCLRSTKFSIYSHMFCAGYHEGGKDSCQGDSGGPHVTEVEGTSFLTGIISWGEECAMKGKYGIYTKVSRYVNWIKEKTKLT
Protocol: In order to assay the FVIII-like activity of anti-FIXa antibodies secreted by hybridoma cells, the commercially available test-kit COATEST VIII:C/4® (Chromogenix) was employed. The assay was done essentially as described by the manufacturer with the following modifications:
To allow high throughput screening, the assay was downscaled to microtiter plate format. Briefly, 25 μl aliquots of hybridoma supernatants were transferred to microtiter plate (Costar, #3598) wells and warmed to 37° C. Chromogenic substrate (S-2222), synthetic thrombin inhibitor (I-2581), factor (F) IXa and FX were reconstituted in sterile water and FIXa/FX was mixed with phospholipids according to the supplier's protocol. Per reaction, 50 μl of the phospholipid/FIXa/FX solution were combined with 25 μl CaCl2 (25 mM) and 50 μl of the substrate/inhibitor cocktail. To start the reaction, 125 μl of the premix were added to the hybridoma supernatant in the microtiter plates and incubated at 37° C. Absorbency at 405 nm and 490 nm of the samples was read at various times (30 min to 12 h) against a reagent blank (MLW, cell culture medium instead of hybridoma supernatant) in a Labsystems iEMS Reader MF™ microtiter plate reader. FVIII-like activity of the samples was calculated by comparing the absorbency of the samples against the absorbency of a diluted FVIII reference standard (IMMUNO AG #5T4AR00) using GENESIS™ software.
Several anti-FIX/FIXa antibody producing hybridoma clones were subcloned up to four times and the resulting monoclonal hybridoma cell line used to produce monoclonal antibody containing supernatant. IgG isotype antibodies derived from these supernatants were purified over affinity columns and dialyzed against TBS (see above). IgM antibodies were used as unpurified supernatant fractions. […] Absorbance at 405 nm and 490 nm of the samples was read at various times (5 min to 6 h) against a reagent blank (cell culture medium instead of hybridoma supernatant) in a Labsystems iEMS Reader MF™ microtiter plate reader using GENESIS™ software. […]

chromogenic activity [1]: virtually unchanged
chromogenic activity ([1]; listed as A1/3-rd): did not change the FVIII-like activity
Molecule: RdRdRdEGGGYYVNWYFDRdRdRd [A1/3-Rd]
average clotting time ([2]; Table 4, 1.25 μM, 2.2 nM FIXa): 96 s
clotting time ([2]; Table 4, 1.25 μM, 2.2 nM FIXa, duplicate 1): 96.6 s
clotting time ([2]; Table 4, 1.25 μM, 2.2 nM FIXa, duplicate 2): 96 s
average clotting time ([2]; Table 4, 1.25 μM, w/o FIXa): 108 s
clotting time ([2]; Table 4, 1.25 μM, w/o FIXa, duplicate 1): 107.5 s
clotting time ([2]; Table 4, 1.25 μM, w/o FIXa, duplicate 2): 107.7 s
average clotting time ([2]; Table 4, 2.5 μM, 2.2 nM FIXa): 95 s
clotting time ([2]; Table 4, 2.5 μM, 2.2 nM FIXa, duplicate 1): 94.4 s
clotting time ([2]; Table 4, 2.5 μM, 2.2 nM FIXa, duplicate 2): 94.7 s
average clotting time ([2]; Table 4, 2.5 μM, w/o FIXa): 103 s
clotting time ([2]; Table 4, 2.5 μM, w/o FIXa, duplicate 1): 102.7 s
clotting time ([2]; Table 4, 2.5 μM, w/o FIXa, duplicate 2): 103.4 s
average clotting time ([2]; Table 4, 5 μM, 2.2 nM FIXa): 86 s
clotting time ([2]; Table 4, 5 μM, 2.2 nM FIXa, duplicate 1): 86 s
clotting time ([2]; Table 4, 5 μM, 2.2 nM FIXa, duplicate 2): 85.1 s
average clotting time ([2]; Table 4, 5 μM, w/o FIXa): 99 s
clotting time ([2]; Table 4, 5 μM, w/o FIXa, duplicate 1): 99.2 s
clotting time ([2]; Table 4, 5 μM, w/o FIXa, duplicate 2): 99.1 s
average clotting time ([2]; Table 4, 7.5 μM, 2.2 nM FIXa): 82 s
clotting time ([2]; Table 4, 7.5 μM, 2.2 nM FIXa, duplicate 1): 80.9 s
clotting time ([2]; Table 4, 7.5 μM, 2.2 nM FIXa, duplicate 2): 82.2 s
average clotting time ([2]; Table 4, 7.5 μM, w/o FIXa): 98 s
clotting time ([2]; Table 4, 7.5 μM, w/o FIXa, duplicate 1): 97.6 s
clotting time ([2]; Table 4, 7.5 μM, w/o FIXa, duplicate 2): 98.1 s
average clotting time ([2]; Table 4, 10 μM, 2.2 nM FIXa): 76 s
clotting time ([2]; Table 4, 10 μM, 2.2 nM FIXa, duplicate 1): 74.2 s
clotting time ([2]; Table 4, 10 μM, 2.2 nM FIXa, duplicate 2): 77.2 s
average clotting time ([2]; Table 4, 10 μM, w/o FIXa): 95 s
clotting time ([2]; Table 4, 10 μM, w/o FIXa, duplicate 1): 93.5 s
clotting time ([2]; Table 4, 10 μM, w/o FIXa, duplicate 2): 95.8 s
average clotting time ([2]; Table 4, 12.5 μM, 2.2 nM FIXa): 73 s
clotting time ([2]; Table 4, 12.5 μM, 2.2 nM FIXa, duplicate 1): 72.3 s
clotting time ([2]; Table 4, 12.5 μM, 2.2 nM FIXa, duplicate 2): 73.7 s
average clotting time ([2]; Table 4, 12.5 μM, w/o FIXa): 98 s
clotting time ([2]; Table 4, 12.5 μM, w/o FIXa, duplicate 1): 98 s
clotting time ([2]; Table 4, 12.5 μM, w/o FIXa, duplicate 2): 98.6 s
average clotting time ([2]; Table 4, 15 μM, 2.2 nM FIXa): 75 s
clotting time ([2]; Table 4, 15 μM, 2.2 nM FIXa, duplicate 1): 76.1 s
clotting time ([2]; Table 4, 15 μM, 2.2 nM FIXa, duplicate 2): 74.4 s
average clotting time ([2]; Table 4, 15 μM, w/o FIXa): 96 s
clotting time ([2]; Table 4, 15 μM, w/o FIXa, duplicate 1): 96.4 s
clotting time ([2]; Table 4, 15 μM, w/o FIXa, duplicate 2): 95.4 s
aPTT based one-stage clotting activity ([2]; compared with A1/3): somewhat reduced, was still easily detectable

chromogenic FVIII-like activity (FXa generation) without human FIXa [3]: does not react with bovine FIXa and FX
B1: 198/A1: anti-FIX/FIXa monoclonal IgG, ECACC No. 99090924; scFv SEQ. ID. NOs. 87 and 88 (protein)
scFv: EVQLQESGGGLVKPGGSLKLSCAASGFIFSSYTMSWVRQTPEKRLEWVATISSGGSSTYYPDSVKGRFTISRDNAKNTLYLQMSSLKSEDTAMYHCTREGGGYYVNWYFDVWGAGTTLTVSSGGGGSGGRASGGGGSDIELTQSPASLAVSLGQRATISCRASESVDSYGKSFMHWYQQKPGQPPKLLIYRASNLESGIPARFSGSGSRTDFTLTINPVEADDVATYYCQQSNEDPLTFGAGTRLEIKR
modifications: scFv derived from IgG; Description of Artificial Sequence:scFv derived from hybridima cell line 198/A1
notes: anti-FIX/FIXa monoclonal IgG, ECACC No. 99090924; ID; NOs; 87 and 88
procoagulant activity ([2]; one-stage clotting assay in the presence of FIXa): show procoagulant activity
